# Active and inactive are the calls of the source. The calls are words filed in the database; no cut-off is given here.
# Target: T1, Peroxisome proliferator-activated receptor gamma (Homo sapiens) (UniProt P37231)
# T1 sequence (whole entry): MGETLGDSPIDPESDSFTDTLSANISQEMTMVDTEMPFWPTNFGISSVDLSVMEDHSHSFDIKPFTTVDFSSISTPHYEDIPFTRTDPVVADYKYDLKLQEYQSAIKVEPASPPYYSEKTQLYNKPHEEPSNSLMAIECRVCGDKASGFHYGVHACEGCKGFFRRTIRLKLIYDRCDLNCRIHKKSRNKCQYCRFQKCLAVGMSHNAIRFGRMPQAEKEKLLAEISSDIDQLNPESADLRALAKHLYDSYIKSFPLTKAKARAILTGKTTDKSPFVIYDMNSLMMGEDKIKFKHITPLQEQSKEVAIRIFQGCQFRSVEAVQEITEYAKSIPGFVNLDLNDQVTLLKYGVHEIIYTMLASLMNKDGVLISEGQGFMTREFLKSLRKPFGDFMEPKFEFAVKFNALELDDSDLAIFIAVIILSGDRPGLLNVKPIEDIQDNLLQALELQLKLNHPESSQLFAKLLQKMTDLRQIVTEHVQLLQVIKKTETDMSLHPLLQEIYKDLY
# Assay: Transactivation of full length human FLAG-tagged PPARgamma1 LBD expressed in rat Ac2F cells at 5 to 10 uM after 6 hrs by luciferase reporter gene assay
# Format: cell-based
row,Compound,Activity
1,COC(=O)CC1CCC(=O)C1=CCc1ccccc1 (stereo not drawn),Active
2,COC(=O)CC1CCC(=O)C1=CC1CCCCC1 (stereo not drawn),Active
3,COC(=O)CC1CCC(=O)C1=CC(OC)OC (stereo not drawn),Active
4,COC(=O)CC1CCC(=O)/C1=C\CCc1ccccc1 (stereo not drawn),inactive
5,COC(=O)CC1CCC(=O)/C1=C/CCc1ccccc1 (stereo not drawn),inactive
6,COC(=O)CC1CCC(=O)C1=CC1CCCC1 (stereo not drawn),Active
7,O=C(O)CC1CCC(=O)/C1=C/C1CCCCC1 (stereo not drawn),Active
8,CCCCCCCCC=C1C(=O)CCC1CC(=O)OC (stereo not drawn),inactive
9,COC(=O)CC1CCC(=O)C1=CC(C)c1ccccc1 (stereo not drawn),inactive
10,COC(=O)CC1CCC(=O)C1=CCC(C)C (stereo not drawn),Active
11,CCCCCCC=C1C(=O)CCC1CC(=O)OC (stereo not drawn),inactive
12,CCOC(=O)CC1CCC(=O)/C1=C/C1CCCCC1 (stereo not drawn),Active
13,COC(=O)CC1CCC(=O)/C1=C/C1CCCCC1 (stereo not drawn),Active
14,CCCCC(C=C1C(=O)CCC1CC(=O)OC)CC (stereo not drawn),Active
15,CCCCCCCC=C1C(=O)CCC1CC(=O)OC (stereo not drawn),inactive
16,COC(=O)CC1CCC(=O)C1CC1CCCCC1 (stereo not drawn),inactive
17,COC(=O)CC1CCC(=O)C1=CC(c1ccccc1)c1ccccc1 (stereo not drawn),inactive
18,CCOC(=O)C[C@H]1CCC(=O)/C1=C/C1CCCCC1,Active
19,CCCCC=C1C(=O)CCC1CC(=O)OC (stereo not drawn),inactive
20,CCOC(=O)C[C@@H]1CCC(=O)/C1=C/C1CCCCC1,Active
21,CCC=C1C(=O)CCC1CC(=O)OC (stereo not drawn),inactive
22,CCCC=C1C(=O)CCC1CC(=O)OC (stereo not drawn),inactive

# System: not listed separately
# Assay: Cytotoxicity against rat Ac2F cells assessed as decrease in cell viability after 24 hrs by WST assay
# Format: cell-based
row,Compound,Activity
1,COC(=O)CC1CCC(=O)C1=CC1CCCCC1 (stereo not drawn),Non-Toxic

# — ChEMBL document CHEMBL4270639, “Design of PPAR-γ agonist based on algal metabolites and the endogenous ligand 15-deoxy-Δ12, 14-prostaglandin J2” (Eur J Med Chem, 2018)
